Reference: patent US20240299359A1, “PHARMACEUTICAL COMPOSITION FOR ANIMALS CONTAINING 5-HYDROXY-METHYLIMIDAZOLIDINE-2,4-DIONE COMPOUND AS ACTIVE INGREDIENT” (KYONGBO PHARM. CO., LTD., priority 2021, published 2024)
Several values for one entry are separate records, joined by “and”; a condition that tells them apart may be missing. Identical values can stand only once.

Tested on: beagles
Assay: 13-week repeated oral toxicity: hematological test
Format: in vivo, beagle
Procedure: Fasting was conducted the day before administration (blood test date, pre), the 4th week (day 29) after administration, the 8th week (day 57) after administration, and the 13th week (day 92) after administration, and when the remaining feed was present in the feed container 3 hours after feeding on the day of fasting, it was removed.
All subjects were fasted for 16 hours and measurements were then performed pre (before administration), 4 weeks (day 29) after administration, 8 weeks (day 57) after administration, and 13 weeks (day 92) after administration. Within 3 hours after 2 to 3 ml of blood collected from the jugular vein of each subject was injected into a CBC bottle containing EDTA, RBC, HGB, HCT, RBC indices (MCV, MCH, MCHC), and platelet count and WBC differential count were measured using an automatic hematometer.

[1] = G2 200 mg/kg group, female (F4-F6, Mean), before administration (day 0)
[2] = G2 200 mg/kg group, female (F4-F6, Mean), before administration (day 0), mean
[3] = G2 200 mg/kg group, male (M4-M6, Mean), before administration (day 0)
[4] = G2 200 mg/kg group, male (M4-M6, Mean), before administration (day 0), mean
[5] = G2 200 mg/kg, repeated administration for 13 weeks, female, group mean
[6] = G2 200 mg/kg, repeated administration for 13 weeks, female, individual animals
[7] = G2 200 mg/kg, repeated administration for 13 weeks, male, group mean
[8] = G2 200 mg/kg, repeated administration for 13 weeks, male, individual animals
[9] = G3 500 mg/kg group, female (F7-F9, Mean), before administration (day 0)
[10] = G3 500 mg/kg group, female (F7-F9, Mean), before administration (day 0), mean
[11] = G3 500 mg/kg group, male (M7-M9, Mean), before administration (day 0)
[12] = G3 500 mg/kg group, male (M7-M9, Mean), before administration (day 0), mean
[13] = G3 500 mg/kg, repeated administration for 13 weeks, female, group mean

With CN1C(=O)NC(=O)C1O (stereo not drawn) [KBP-001, 5-hydroxy-1-methylimidazolidine-2,4-dione] the HCT [1] was 47.0% and 49.6% and 51.3%, the HGB [1] was 15. g/dl and 16.7 g/dl and 17.5 g/dl and the MCH [1] was 22.5 pg and 22.6 pg and 22.7 pg. For the same molecule, the MCHC [1] was 33.8 g/dL and 33.6 g/dL and 34.1 g/dL, the MCV [1] was 66.6 fL and 67.3 fL and 66.7 fL and the Retic [1] was 0.77% and 1.34% and 1.01%. For the same molecule, the “WBC Differential Counting Baso” value [1] was 1.0% (2×) and 0.8%, the “WBC Differential Counting Eos” value [1] was 7.3% and 5.5% and 4.5% and the “WBC Differential Counting Lymph” value [1] was 30.0% and 20.55% and 30.2%. The “WBC Differential Counting Mono” value [1] was 5.7% and 6.2% and 6.1%, the “WBC Differential Counting Neut” value [1] was 55.5% and 66.3% and 57.6% and the HCT [2] was 49.30%. The HGB [2] was 16.70 g/dL, the MCH [2] was 22.6 pg and the MCHC [2] was 33.83 g/dL. The MCV [2] was 66.9 fL, the Retic [2] was 1.04% and the “WBC Differential Counting Baso” value [2] was 0.93%. For the same molecule, the “WBC Differential Counting Eos” value [2] was 5.77%, the “WBC Differential Counting Lymph” value [2] was 27.00% and the “WBC Differential Counting Mono” value [2] was 6.00%. For the same molecule, the “WBC Differential Counting Neut” value [2] was 59.80%, the HCT [3] was 48.1% and 48.8% and 45.2% and the HGB [3] was 16.0 g/dL and 15.2 g/dL. The MCH [3] was 22.2 pg and 21.7 pg and 21 pg, the MCHC [3] was 33.3 g/dL and 32.9 g/dL and 33.7 g/dL and the MCV [3] was 66.8 fL and 66.1 fL and 62.3 fL. For the same molecule, the Retic [3] was 1.21% and 1.16% and 1.11%, the “WBC Differential Counting Baso” value [3] was 1.0% and 0.9% and 0.8% and the “WBC Differential Counting Eos” value [3] was 3.5% and 4.7% and 6.4%. The “WBC Differential Counting Lymph” value [3] was 40.5% and 29.4% and 23.2%, the “WBC Differential Counting Mono” value [3] was 4.7% and 8.3% and 6.0% and the “WBC Differential Counting Neut” value [3] was 49.6% and 56.2% and 63.3%. For the same molecule, the HCT [4] was 47.37%, the HGB [4] was 15.73 g/dL and the MCH [4] was 21.6 pg. The MCHC [4] was 33.30 g/dL, the MCV [4] was 65.1 fL and the “WBC Differential Counting Baso” value [4] was 0.90%. The “WBC Differential Counting Eos” value [4] was 4.87%, the “WBC Differential Counting Lymph” value [4] was 31.03% and the “WBC Differential Counting Mono” value [4] was 6.33%. For the same molecule, the “WBC Differential Counting Neut” value [4] was 56.37%, the HGB [5] was 15.77 g/dL and the MCH [5] was 22.9 pg. It also gave an MCHC [5] of 33.80 g/dL, an MCV [5] of 67.9 fL and a Retic [5] of 0.41%. For the same molecule, the “WBC Differential Counting(%) Baso” value [5] was 0.77%, the “WBC Differential Counting(%) Eos” value [5] was 8.10% and the “WBC Differential Counting(%) Lymph” value [5] was 28.50%. For the same molecule, the “WBC Differential Counting(%) Mono” value [5] was 5.30%, the “WBC Differential Counting(%) Neut” value [5] was 56.90% and the HCT [6] was 45.3% and 47.7% and 46.9%. The HGB [6] was 15.3 g/dl and 16.0 g/dl (2×), the MCHC [6] was 33.7 g/dL and 33.6 g/dL and 34.1 g/dL and the MCV [6] was 67.2 fL and 68.8 fL and 67.5 fL. For the same molecule, the Retic [6] was 0.25% and 0.42% and 0.55%, the “WBC Differential Counting(%) Baso” value [6] was 0.8% (2×) and 0.7% and the “WBC Differential Counting(%) Eos” value [6] was 8.1% and 7.4% and 8.8%. For the same molecule, the “WBC Differential Counting(%) Lymph” value [6] was 25.1% and 33.4% and 27.0%, the “WBC Differential Counting(%) Mono” value [6] was 5.3% and 5.0% and 5.6% and the “WBC Differential Counting(%) Neut” value [6] was 60.2% and 53.1% and 57.4%. For the same molecule, the HCT [7] was 46.43%, the HGB [7] was 15.53 g/dL and the MCH [7] was 22.2 pg. The MCHC [7] was 33.40 g/dL, the MCV [7] was 66.4 fL and the Retic [7] was 0.50%. For the same molecule, the “WBC Differential Counting(%) Baso” value [7] was 0.67%, the “WBC Differential Counting(%) Eos” value [7] was 6.23% and the “WBC Differential Counting(%) Lymph” value [7] was 31.10%. For the same molecule, the “WBC Differential Counting(%) Mono” value [7] was 6.47%, the “WBC Differential Counting(%) Neut” value [7] was 55.10% and the HCT [8] was 43.8% and 47.0% and 48.5%. The HGB [8] was 14.4 g/dL and 15.8 g/dL and 16.4 g/dL, the MCH [8] was 22 pg and 22.8 pg and 21.8 pg and the MCHC [8] was 32.9 g/dL and 33.5 g/dL and 33.8 g/dL. For the same molecule, the MCV [8] was 66.8 fL and 67.9 fL and 64.5 fL, the Retic [8] was 0.45% and 0.59% and 0.46% and the “WBC Differential Counting(%) Baso” value [8] was 0.8% and 0.7% and 0.5%. For the same molecule, the “WBC Differential Counting(%) Eos” value [8] was 6.8% and 5.3% and 6.6%, the “WBC Differential Counting(%) Lymph” value [8] was 35.9% and 32.7% and 24.7% and the “WBC Differential Counting(%) Mono” value [8] was 6.1% and 7.5% and 5.8%. The “WBC Differential Counting(%) Neut” value [8] was 50.0% and 53.4% and 61.9%, the HCT [9] was 44.4% and 50.3% and 47.5% and the HGB [9] was 14.6 g/dL and 16.9 g/dL and 15.9 g/dL. The MCH [9] was 22.5 pg and 22.2 pg and 22.1 pg, the MCHC [9] was 33.0 g/dL and 33.5 g/dL and the MCV [9] was 68.3 fL and 66.4 fL and 66.2 fL. For the same molecule, the Retic [9] was 0.61% and 0.91% and 1.01%, the “WBC Differential Counting Baso” value [9] was 0.6% and 1.5% and 0.4% and the “WBC Differential Counting Eos” value [9] was 3.4% and 1.1% and 3.7%. For the same molecule, the “WBC Differential Counting Lymph” value [9] was 42.0% and 44.2% and 28.3%, the “WBC Differential Counting Mono” value [9] was 4.9% and 3.7% and 5.9% and the HCT [10] was 47.40%. The HGB [10] was 15.80 g/dL, the MCH [10] was 22.3 pg and the MCHC [10] was 33.33 g/dL. For the same molecule, the MCV [10] was 67 fL, the Retic [10] was 0.84% and the “WBC Differential Counting Baso” value [10] was 0.83%. For the same molecule, the “WBC Differential Counting Eos” value [10] was 2.73%, the “WBC Differential Counting Lymph” value [10] was 38.17% and the “WBC Differential Counting Mono” value [10] was 4.83%. For the same molecule, the HCT [11] was 44.8% and 43.0% and 52.1%, the HGB [11] was 15.0 g/dL and 13.8 g/dL and 17.4 g/dL and the MCH [11] was 23 pg and 22.3 pg and 22.9 pg. The MCHC [11] was 33.4 g/dL and 32.1 g/dL, the MCV [11] was 68 fL and 69.4 fL and 68.7 fL and the Retic [11] was 0.60% and 0.46% and 0.84%. For the same molecule, the “WBC Differential Counting Baso” value [11] was 0.4% and 0.8% and 1.1%, the “WBC Differential Counting Eos” value [11] was 2.6% and 8.5% and 2.9% and the “WBC Differential Counting Lymph” value [11] was 36.0% and 33.1% and 36.7%. For the same molecule, the “WBC Differential Counting Mono” value [11] was 5.9% and 7.8% and 5.8%, the “WBC Differential Counting Neut” value [11] was 54.8% and 49.4% and 53.0% and the HCT [12] was 46.63%. The HGB [12] was 15.40 g/dL, the MCH [12] was 22.7 pg and the MCHC [12] was 32.97 g/dL. For the same molecule, the MCV [12] was 69 fL, the Retic [12] was 0.63% and the “WBC Differential Counting Baso” value [12] was 0.77%. The “WBC Differential Counting Eos” value [12] was 4.67%, the “WBC Differential Counting Lymph” value [12] was 35.27% and the “WBC Differential Counting Mono” value [12] was 6.50%. For the same molecule, the “WBC Differential Counting Neut” value [12] was 52.40%, the HCT [13] was 48.00% and the HGB [13] was 16.00 g/dL.
